Structures are written as SMILES.

The target in the experiment is CK2A1 (CK2α/β) (Homo sapiens, UniProt P68400). Description: CK2 kinase assay, CK2A1 (CK2α/β). Format: biochemical. The note with it: Table A; read-out: CK2A1 (CK2α/β) (IC50).
Chain of CK2A1 (CK2α/β) (P68400 whole entry, species assumed): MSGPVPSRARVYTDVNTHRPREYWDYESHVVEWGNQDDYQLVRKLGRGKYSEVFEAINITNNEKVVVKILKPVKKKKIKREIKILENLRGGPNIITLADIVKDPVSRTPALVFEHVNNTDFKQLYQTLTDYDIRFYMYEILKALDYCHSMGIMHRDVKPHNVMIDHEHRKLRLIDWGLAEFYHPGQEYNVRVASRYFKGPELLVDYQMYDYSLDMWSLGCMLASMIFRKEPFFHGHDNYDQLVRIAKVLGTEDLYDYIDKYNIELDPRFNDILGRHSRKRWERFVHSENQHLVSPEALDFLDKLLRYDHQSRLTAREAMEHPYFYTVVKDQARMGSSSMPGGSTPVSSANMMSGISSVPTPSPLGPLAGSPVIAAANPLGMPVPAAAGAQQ
Chain of CK2A1 (CK2α/β) (P67870 whole entry partner, species assumed): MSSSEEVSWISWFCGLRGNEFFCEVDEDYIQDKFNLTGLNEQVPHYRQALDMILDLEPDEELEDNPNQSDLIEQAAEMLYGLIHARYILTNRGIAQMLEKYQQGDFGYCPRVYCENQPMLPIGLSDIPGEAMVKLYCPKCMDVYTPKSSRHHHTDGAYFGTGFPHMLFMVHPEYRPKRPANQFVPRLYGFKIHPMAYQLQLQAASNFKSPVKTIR
On to `CN1CCC(F)(c2cc(C#N)cc(Nc3nc(NC4CC4)c4ncc(C#N)n4n3)c2Cl)CC1` [Example 661, 2-((2-chloro-5-cyano-3-(4-fluoro-1-methylpiperidin-4-yl)phenyl)amino)-4-(cyclopropylamino)imidazo[2,1-f][1,2,4]triazine-7-carbonitrile], for which the IC50 turned out to be 1.56 nM.

Regarding `N#Cc1cc(Nc2nc(NC3CC3)c3ncc(C#N)n3n2)c(Cl)c(C(F)C2CCNCC2)c1` (stereo not shown) [Example 662, 2-((2-chloro-5-cyano-3-(fluoro(piperidin-4-yl)methyl)phenyl)amino)-4-(cyclopropylamino)imidazo[2,1-f][1,2,4]triazine-7-carbonitrile], the IC50 turned out to be 0.48 nM. `CC(=O)N1CCC(C(F)c2cc(C#N)cc(Nc3nc(NC4CC4)c4ncc(C#N)n4n3)c2Cl)CC1` (stereo not shown) [Example 663, 2-((3-((1-acetylpiperidin-4-yl)fluoromethyl)-2-chloro-5-cyanophenyl)amino)-4-(cyclopropylamino)imidazo[2,1-f][1,2,4]triazine-7-carbonitrile]: the IC50 was found to be 0.77 nM. The figure for `N#Cc1cc(CNC2CCOCC2)c(Cl)c(Nc2nc(NC3CC3)c3ncc(C#N)n3n2)c1` [Example 664, 2-((2-chloro-5-cyano-3-(((tetrahydro-2H-pyran-4-yl)amino)methyl)phenyl)amino)-4-(cyclopropylamino)imidazo[2,1-f][1,2,4]triazine-7-carbonitrile] is 0.98 nM; for `N#Cc1cc(CN2CCC3(CC2)COC3)c(Cl)c(Nc2nc(NC3CC3)c3ncc(C#N)n3n2)c1` [Example 665, 2-((3-(2-oxa-7-azaspiro[3.5]nonan-7-ylmethyl)-2-chloro-5-cyanophenyl)amino)-4-(cyclopropylamino)imidazo[2,1-f][1,2,4]triazine-7-carbonitrile] it is 0.67 nM. For the compound `N#Cc1cc(CN2CCNC(=O)C2)c(Cl)c(Nc2nc(NC3CC3)c3ncc(C#N)n3n2)c1` [Example 666, 2-((2-chloro-5-cyano-3-((3-oxopiperazin-1-yl)methyl)phenyl)amino)-4-(cyclopropylamino)imidazo[2,1-f][1,2,4]triazine-7-carbonitrile], the IC50 is 0.3 nM. The figure for `CN(C)Cc1cc(C#N)cc(Nc2nc(NC3CC3)c3ncc(C#N)n3n2)c1Cl` [Example 667, 2-((2-chloro-5-cyano-3-((dimethylamino)methyl)phenyl)amino)-4-(cyclopropylamino)imidazo[2,1-f][1,2,4]triazine-7-carbonitrile] is 0.65 nM; for `N#Cc1cc(CN2CCNCC2)c(Cl)c(Nc2nc(NC3CC3)c3ncc(C#N)n3n2)c1` [Example 668, 2-((2-chloro-5-cyano-3-(piperazin-1-ylmethyl)phenyl)amino)-4-(cyclopropylamino)imidazo[2,1-f][1,2,4]triazine-7-carbonitrile] it is 0.76 nM; for `N#Cc1cc(CN2CCNCC(O)C2)c(Cl)c(Nc2nc(NC3CC3)c3ncc(C#N)n3n2)c1` (stereo not shown) [Example 669, 2-((2-chloro-5-cyano-3-((6-hydroxy-1,4-diazepan-1-yl)methyl)phenyl)amino)-4-(cyclopropylamino)imidazo[2,1-f][1,2,4]triazine-7-carbonitrile] it is 0.52 nM. The figure for `CN1CCN(Cc2cc(C#N)cc(Nc3nc(NC4CC4)c4ncc(C#N)n4n3)c2Cl)CC1` [Example 670, 2-((2-chloro-5-cyano-3-((4-methylpiperazin-1-yl)methyl)phenyl)amino)-4-(cyclopropylamino)imidazo[2,1-f][1,2,4]triazine-7-carbonitrile] is 0.76 nM; for `N#Cc1cc(CN2CCS(=O)(=O)CC2)c(Cl)c(Nc2nc(NC3CC3)c3ncc(C#N)n3n2)c1` [Example 671, 2-((2-chloro-5-cyano-3-((1,1-dioxidothiomorpholino)methyl)phenyl)amino)-4-(cyclopropylamino)imidazo[2,1-f][1,2,4]triazine-7-carbonitrile] it is 1.71 nM. Turning to `N#Cc1cc(CN2CCC(O)CC2)c(Cl)c(Nc2nc(NC3CC3)c3ncc(C#N)n3n2)c1` [Example 672, 2-((2-chloro-5-cyano-3-((4-hydroxypiperidin-1-yl)methyl)phenyl)amino)-4-(cyclopropylamino)imidazo[2,1-f][1,2,4]triazine-7-carbonitrile], the IC50 amounted to 0.62 nM. Then `N#Cc1cc(CN2CC(O)C2)c(Cl)c(Nc2nc(NC3CC3)c3ncc(C#N)n3n2)c1` [Example 673, 2-((2-chloro-5-cyano-3-((3-hydroxyazetidin-1-yl)methyl)phenyl)amino)-4-(cyclopropylamino)imidazo[2,1-f][1,2,4]triazine-7-carbonitrile], with 0.49 nM; and `CC(C)(CO)NCc1cc(C#N)cc(Nc2nc(NC3CC3)c3ncc(C#N)n3n2)c1Cl` [Example 674, 2-((2-chloro-5-cyano-3-(((1-hydroxy-2-methylpropan-2-yl)amino)methyl)phenyl)amino)-4-(cyclopropylamino)imidazo[2,1-f][1,2,4]triazine-7-carbonitrile], with 1.74 nM. The figure for `CC(=O)c1cc(C#N)cc(Nc2nc(NC3CC3)c3ncc(C#N)n3n2)c1Cl` [Example 675, 2-((3-acetyl-2-chloro-5-cyanophenyl)amino)-4-(cyclopropylamino)imidazo[2,1-f][1,2,4]triazine-7-carbonitrile] is 0.24 nM; for `CC(C)(O)c1cc(C#N)cc(Nc2nc(NC3CC3)c3ncc(C#N)n3n2)c1Cl` [Example 676, 2-((2-chloro-5-cyano-3-(2-hydroxypropan-2-yl)phenyl)amino)-4-(cyclopropylamino)imidazo[2,1-f][1,2,4]triazine-7-carbonitrile] it is 0.41 nM. Then `N#Cc1cc(CN=[N+]=[N-])c(Cl)c(Nc2nc(NC3CC3)c3ncc(C#N)n3n2)c1` [Example 683, 2-((3-(azidomethyl)-2-chloro-5-cyanophenyl)amino)-4-(cyclopropylamino)imidazo[2,1-f][1,2,4]triazine-7-carbonitrile], with 0.14 nM. For `N#Cc1cc(Nc2nc(NC3CC3)c3ncc(C#N)n3n2)c(Cl)c(C(O)CN2CCOCC2)c1` (stereo not shown) [Example 684, 2-((2-chloro-5-cyano-3-(1-hydroxy-2-morpholinoethyl)phenyl)amino)-4-(cyclopropylamino)imidazo[2,1-f][1,2,4]triazine-7-carbonitrile], the IC50 amounted to 1.34 nM. The figure for `COCCNCC(O)c1cc(C#N)cc(Nc2nc(NC3CC3)c3ncc(C#N)n3n2)c1Cl` (stereo not shown) [Example 685, 2-((2-chloro-5-cyano-3-(1-hydroxy-2-((2-methoxyethyl)amino)ethyl)phenyl)amino)-4-(cyclopropylamino)imidazo[2,1-f][1,2,4]triazine-7-carbonitrile] is 0.95 nM; for `CN1CCN(CC(O)c2cc(C#N)cc(Nc3nc(NC4CC4)c4ncc(C#N)n4n3)c2Cl)CC1` (stereo not shown) [Example 686, 2-((2-chloro-5-cyano-3-(1-hydroxy-2-(4-methylpiperazin-1-yl)ethyl)phenyl)amino)-4-(cyclopropylamino)imidazo[2,1-f][1,2,4]triazine-7-carbonitrile] it is 1.3 nM. For `CS(=O)(=O)N1CCN(CC(O)c2cc(C#N)cc(Nc3nc(NC4CC4)c4ncc(C#N)n4n3)c2Cl)CC1` (stereo not shown) [Example 687, 2-((2-chloro-5-cyano-3-(1-hydroxy-2-(4-(methylsulfonyl)piperazin-1-yl)ethyl)phenyl)amino)-4-(cyclopropylamino)imidazo[2,1-f][1,2,4]triazine-7-carbonitrile], the IC50 worked out at 0.99 nM. As to `N#Cc1cc(Nc2nc(NC3CC3)c3ncc(C#N)n3n2)c(Cl)c(C(O)CN2CCC(O)CC2)c1` (stereo not shown) [Example 688, 2-((2-chloro-5-cyano-3-(1-hydroxy-2-(4-hydroxypiperidin-1-yl)ethyl)phenyl)amino)-4-(cyclopropylamino)imidazo[2,1-f][1,2,4]triazine-7-carbonitrile], the IC50 came to 2.4 nM. The figure for `CC(=O)N1CCN(CC(O)c2cc(C#N)cc(Nc3nc(NC4CC4)c4ncc(C#N)n4n3)c2Cl)CC1` (stereo not shown) [Example 689, 2-((3-(2-(4-acetylpiperazin-1-yl)-1-hydroxyethyl)-2-chloro-5-cyanophenyl)amino)-4-(cyclopropylamino)imidazo[2,1-f][1,2,4]triazine-7-carbonitrile] is 1 nM; for `CC1(O)CCN(CC(O)c2cc(C#N)cc(Nc3nc(NC4CC4)c4ncc(C#N)n4n3)c2Cl)CC1` (stereo not shown) [Example 690, 2-((2-chloro-5-cyano-3-(1-hydroxy-2-(4-hydroxy-4-methylpiperidin-1-yl)ethyl)phenyl)amino)-4-(cyclopropylamino)imidazo[2,1-f][1,2,4]triazine-7-carbonitrile] it is 3.4 nM. Regarding `CC(C)(O)CNCC(O)c1cc(C#N)cc(Nc2nc(NC3CC3)c3ncc(C#N)n3n2)c1Cl` (stereo not shown) [Example 691, 2-((2-chloro-5-cyano-3-(1-hydroxy-2-((2-hydroxy-2-methylpropyl)amino)ethyl)phenyl)amino)-4-(cyclopropylamino)imidazo[2,1-f][1,2,4]triazine-7-carbonitrile], the IC50 was 1.81 nM. The figure for `CC(C)(C)NCC(O)c1cc(C#N)cc(Nc2nc(NC3CC3)c3ncc(C#N)n3n2)c1Cl` (stereo not shown) [Example 692, 2-((3-(2-(tert-butylamino)-1-hydroxyethyl)-2-chloro-5-cyanophenyl)amino)-4-(cyclopropylamino)imidazo[2,1-f][1,2,4]triazine-7-carbonitrile] is 1.81 nM; for `CC(C)(CO)NCC(O)c1cc(C#N)cc(Nc2nc(NC3CC3)c3ncc(C#N)n3n2)c1Cl` (stereo not shown) [Example 693, 2-((2-chloro-5-cyano-3-(1-hydroxy-2-((1-hydroxy-2-methylpropan-2-yl)amino)ethyl)phenyl)amino)-4-(cyclopropylamino)imidazo[2,1-f][1,2,4]triazine-7-carbonitrile] it is 1.1 nM; for `CN(CC1CN(c2cc(C#N)cc(Nc3nc(NC4CC4)c4ncc(C#N)n4n3)c2Cl)CCO1)CC(C)(C)O` (stereo not shown) [Example 701, 2-{[2-chloro-5-cyano-3-(2-{[(2-hydroxy-2-methylpropyl)(methyl)amino]methyl}morpholin-4-yl)phenyl]amino}-4-(cyclopropylamino)imidazo[2,1-f][1,2,4]triazine-7-carbonitrile] it is 2.68 nM.

These data come from patent US9273057B2 (Bristol-Myers Squibb Company, priority 2012, dated 2016).
